Tests used:
[1] = Solubility testing in gas bubbler/sparger with continuous 9 mol % CO2 in N2; conditions: 9 mol % CO2, ambient conditions
[2] = Preliminary solubility testing of CO2-loaded amino/amino-sulfonic acid solutions (precipitation temperature); type: physicochemical; conditions: for solubility of CO2-loaded solution (in words): CO2 loaded 0.35-0.45 mol CO2/mol alk., lowest limit of apparatus −10° C.; for Precipitation Temperature: ambient pressure, test range −10° C. to 40° C.
Method: Preliminary solubility testing was carried out with various amino and amino-sulfonic acids and blends thereof to determine the propensity for solids precipitation. These blends were loaded with CO2 under representative process conditions: a CO2 loading from 0.35 to 0.45 mol CO2/mol alkalinity at ambient pressure and a temperature from −10° C. to 40° C. CO2 loading was achieved by addition of potassium bicarbonate instead of some potassium hydroxide as the neutralizing agent. The loading (in mol CO2 per mol alkalinity) was determined from the following equation: […]

[3] = Continuous test plant: membrane contactor CO2 absorption from exhaust and solvent regeneration in stripper; conditions: for solids at ambient conditions (in words): atmospheric pressure and room temperature

CC(C)(N)C(=O)O [1 m AlBA, Amino isobutyric acid]
precipitation when 9 mol % CO2 continuously injected (in words) [1]: did not precipitate

NCCCS(=O)(=O)O [3 m HTAU, homotaurine]
precipitation when 9 mol % CO2 continuously injected (in words) [1]: did not precipitate

CN[C@@H](C)C(=O)O [3 m NMA, n-methyl-alanine]
precipitation when 9 mol % CO2 continuously injected (in words) [1]: did not precipitate

NCCS(=O)(=O)O [3 m TAU, taurine]
solubility of CO2-loaded solution (in words) [2]: soluble at process temperatures from 40 °C to 120° C., but potentially not soluble at room temperature | Solid Observed ([3]; 210 kPa stripper pressure, 120° C. stripper temperature, 3.75 kg/min liquid, 9 mol % CO2, 25 SCFM): YES | solids at ambient conditions (in words) ([3]; listed as 3 m potassium taurinate): solids are formed

NCCS(=O)(=O)O [5 m TAU, taurine]
solids at ambient conditions (in words) ([3]; listed as 5 m taurine): solids are observed

NCCC(=O)O [5 m b-ALA, Beta-alanine]
precipitation when 9 mol % CO2 continuously injected (in words) [1]: did not precipitate

NCCCS(=O)(=O)O [5 m homotaurine, homotaurine]
solubility of CO2-loaded solution (in words) [2]: highly soluble with no precipitation | Precipitation Temperature ([2]; Loading 0.35 mol CO2/mol alk.): <−10 °C | Precipitation Temperature ([2]; Loading 0.40 mol CO2/mol alk.): <−10 °C | Precipitation Temperature ([2]; Loading 0.45 mol CO2/mol alk.): <−10 °C

Source: patent US20250196055A1, “PROCESS FOR CAPTURING CO2 FROM A MOBILE SOURCE USING AN AMINO ACID SOLVENT” (SAUDI ARABIAN OIL COMPANY, priority 2021, published 2025)
